# Test results published in patent US20260109732A1, “LIPID AMINES” (ModernaTX, Inc., priority 2021, published 2026).
# Structures can show the parent of a compound that is named as a salt.
# Key:
# [1] = tested on: HeLa cells; assay: Luciferase Protein Expression Assay in HeLa Cells; type: cell-based, Human; details: LNPs encapsulating Luciferase mRNA, 25 ng per well, N=4 wells; 5 h serum-free then 24 h; ONE-Glo
# Procedure, shortened: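 Luminescence output, average RLU across N=4 wells, was measured with ONE-Glo after cell lysis. Before that, HeLa cells were exposed to 25 ng/well luciferase-mRNA nanoparticles (PBS control) for 5 h serum-free, then cultured overnight (24 h) in complete MEM.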
# [2] = Encapsulation of mRNA nanoparticles with lipid amines using Ribogreen assay; type: physicochemical
# Procedure, shortened: (§1)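 DLS gave size and PDI, and Ribogreen gave encapsulation, for luciferase- or CFTR-mRNA nanoparticles (N:P 4.93). Particles came from IL1/DSPC/cholesterol/PEG-DMG-2K mixed at pH 4, mRNA-loaded, neutralized with TRIS pH 8.12, and then treated with lipid amine SA50 in pH 7.5 buffer.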
# [3] = Diameter and PDI from DLS measurements of mRNA nanoparticles with lipid amines; type: physicochemical
# Procedure, shortened: as §1
# [4] = tested on: HeLa cells; assay: CFTR Protein Expression Assay in HeLa Cells; type: cell-based, Human; details: LNPs encapsulating CFTR mRNA, N=4 wells; 5 h serum-free then 24 h; immunofluorescence vs PBS control
# Procedure, shortened: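 Readout is fold-change in per-cell CFTR immunofluorescence intensity (488 nm, confocal imaging) relative to PBS-treated cells, from 4 replicate wells. LNPs encapsulating CFTR mRNA were applied serum-free for 5 h, followed by 24 h in complete medium before PFA fixation.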
# [5] = CFTR mRNA nanoparticle with lipid amine
# [6] = Luciferase mRNA nanoparticle modified with lipid amine
Compound,Average Relative Light Units ± Standard Deviation [1] [Relative Light Units],"% Encapsulation (Ribogreen) [2, 5] [%]","% Encapsulation (Ribogreen) [2, 6] [%]","Diameter (nm) [3, 5] [nm]","PDI [3, 5]","Diameter (nm) [3, 6] [nm]","PDI [3, 6]",Average fold-change in CFTR signal intensity per cell compared to buffer control ± standard deviation [4] [fold-change]
"CC[C@H](CC[C@@H](C)[C@H]1CC[C@H]2[C@@H]3CC=C4C[C@@H](OC(=O)CCCC(=O)N(CCCCNCCC(C)(C)N)CCC(C)(C)N)CC[C@]4(C)[C@H]3CC[C@]12C)C(C)C.Cl.Cl.Cl [SA137, (3S,8S,9S,10R,13R,14S,17R)-17-((2R,5R)-5-ethyl-6-methylheptan-2-yl)-10,13-dimethyl-2,3,4,7,8,9,10,11,12,13,14,15,16,17-tetradecahydro-1H-cyclopenta[a]phenanthren-3-yl 5-((3-amino-3-methylbutyl)(4-((3-amino-3-methylbutyl)amino)butyl)amino)-5-oxopentanoate trihydrochloride]",15239.8 ± 6248.1,98.3,99.6,76.3,0.13,79,0.20,14.0 ± 0.8
"CC(C)CCC[C@@H](C)[C@H]1CC[C@H]2[C@@H]3CC=C4C[C@@H](SSCCC(=O)N(CCCCNCCC(C)(C)N)CCC(C)(C)N)CC[C@]4(C)[C@H]3CC[C@]12C.Cl.Cl.Cl [SA138, N-(3-amino-3-methylbutyl)-N-(4-((3-amino-3-methylbutyl)amino)butyl)-3-(((3S,8S,9S,10R,13R,14S,17R)-10,13-dimethyl-17-((R)-6-methylheptan-2-yl)-2,3,4,7,8,9,10,11,12,13,14,15,16,17-tetradecahydro-1H-cyclopenta[a]phenanthren-3-yl)disulfaneyl)propanamide trihydrochloride]",22039.8 ± 8550.1,96.4,99.2,89.6,0.12,72,0.19,12.1 ± 1.1
"CC(C)CCC[C@@H](C)[C@H]1CC[C@H]2[C@@H]3CC=C4C[C@@H](SSCCC(=O)N(CCCCCCCC(C)(C)N)CCC(C)(C)N)CC[C@]4(C)[C@H]3CC[C@]12C.Cl.Cl [SA139, N-(3-amino-3-methylbutyl)-N-(8-amino-8-methylnonyl)-3-(((3S,8S,9S,10R,13R,14S,17R)-10,13-dimethyl-17-((R)-6-methylheptan-2-yl)-2,3,4,7,8,9,10,11,12,13,14,15,16,17-tetradecahydro-1H-cyclopenta[a]phenanthren-3-yl)disulfaneyl)propanamide dihydrochloride]",24497.9 ± 3998.9,99.4,99.4,68.9,0.12,72,0.12,13.3 ± 1.2
"CC(C)CCC[C@@H](C)[C@H]1CC[C@H]2[C@@H]3CC=C4C[C@@H](OC(=O)CCCC(=O)N(CCCCCCCC(C)(C)N)CCC(C)(C)N)CC[C@]4(C)[C@H]3CC[C@]12C.Cl.Cl [SA141, (3S,8S,9S,10R,13R,14S,17R)-10,13-dimethyl-17-((R)-6-methylheptan-2-yl)-2,3,4,7,8,9,10,11,12,13,14,15,16,17-tetradecahydro-1H-cyclopenta[a]phenanthren-3-yl 5-((3-amino-3-methylbutyl)(8-amino-8-methylnonyl)amino)-5-oxopentanoate dihydrochloride]",35801.9 ± 8884.3,98.9,98.9,70.8,0.12,73,0.15,14.9 ± 0.6
"CC(C)CCC[C@@H](C)[C@H]1CC[C@H]2[C@@H]3CC=C4C[C@@H](OC(=O)CCCC(=O)N(CCCCCCCC(C)N)CCC(C)N)CC[C@]4(C)[C@H]3CC[C@]12C (stereo partly drawn) [SA142, (3S,8S,9S,10R,13R,14S,17R)-10,13-dimethyl-17-((R)-6-methylheptan-2-yl)-2,3,4,7,8,9,10,11,12,13,14,15,16,17-tetradecahydro-1H-cyclopenta[a]phenanthren-3-yl 5-((3-aminobutyl)(8-aminononyl)amino)-5-oxopentanoate dihydrochloride]",44925.4 ± 6006.5,99.0,99.5,69.5,0.14,72,0.19,20.0 ± 1.0
"CC[C@H](CC[C@@H](C)[C@H]1CC[C@H]2[C@@H]3CC=C4C[C@@H](OC(=O)N(CCCCCCCC(C)N)CCC(C)N)CC[C@]4(C)[C@H]3CC[C@]12C)C(C)C (stereo partly drawn) [SA144, (3S,8S,9S,10R,13R,14S,17R)-17-((2R,5R)-5-ethyl-6-methylheptan-2-yl)-10,13-dimethyl-2,3,4,7,8,9,10,11,12,13,14,15,16,17-tetradecahydro-1H-cyclopenta[a]phenanthren-3-yl (3-aminobutyl)(8-aminononyl)carbamate dihydrochloride]",33357.5 ± 5288.8,98.8,99.2,69.3,0.12,71,0.15,17.9 ± 2.1
"CC(C)CCC[C@@H](C)[C@H]1CC[C@H]2[C@@H]3CC=C4C[C@@H](SSCCC(=O)N(CCCC(C)(C)N)CCC(C)(C)N)CC[C@]4(C)[C@H]3CC[C@]12C [SA145, N-(3-amino-3-methylbutyl)-N-(4-amino-4-methylpentyl)-3-(((3S,8S,9S,10R,13R,14S,17R)-10,13-dimethyl-17-((R)-6-methylheptan-2-yl)-2,3,4,7,8,9,10,11,12,13,14,15,16,17-tetradecahydro-1H-cyclopenta[a]phenanthren-3-yl)disulfaneyl)propanamide dihydrochloride]",36033.7 ± 4254.5,99.8,99.7,71.8,0.14,77,0.17,14.4 ± 0.6
"CC[C@H](CC[C@@H](C)[C@H]1CC[C@H]2[C@@H]3CC=C4C[C@@H](OC(=O)N(CCCC(C)(C)N)CCC(C)(C)N)CC[C@]4(C)[C@H]3CC[C@]12C)C(C)C [SA149, (3S,8S,9S,10R,13R,14S,17R)-17-((2R,5R)-5-ethyl-6-methylheptan-2-yl)-10,13-dimethyl-2,3,4,7,8,9,10,11,12,13,14,15,16,17-tetradecahydro-1H-cyclopenta[a]phenanthren-3-yl (3-amino-3-methylbutyl)(4-amino-4-methylpentyl)carbamate dihydrochloride]",31035.2 ± 6333.7,99.9,99.5,72.3,0.14,75,0.15,15.8 ± 1.4
"CC(C)CCC[C@@H](C)[C@H]1CC[C@H]2[C@@H]3CC=C4C[C@@H](OC(=O)N(CCCCCCCC(C)N)CCC(C)N)CC[C@]4(C)[C@H]3CC[C@]12C (stereo partly drawn) [SA151, (3S,8S,9S,10R,13R,14S,17R)-10,13-dimethyl-17-((R)-6-methylheptan-2-yl)-2,3,4,7,8,9,10,11,12,13,14,15,16,17-tetradecahydro-1H-cyclopenta[a]phenanthren-3-yl (3-aminobutyl)(8-aminononyl)carbamate dihydrochloride]",36345.5 ± 6730.7,98.2,95.8,72.0,0.14,72,0.12,20.2 ± 1.3
